Results taken from US20230226096A1 (Orna Therapeutics, Inc., priority 2020, published 2023).
“Also recorded” adds a separate entry of the source.

Experiments:
[1] = system: primary human T cells; assay: FLuc oRNA LNP transfection of primary human activated T cells with or without ApoE3; type: cell-based; conditions: 200 ng RNA/well, 24-hour incubation, 4 independent donors
Procedure: Primary human T cells from independent donors were stimulated with aCD3/aCD28 and allowed to proliferate for 6 days in the presence of human serum and IL-2. Then, 100,000 cells were plated in a 96 well plate and LNPs containing oRNA coding for Firefly Luciferase (FLuc) were added to the cells at 200 ng RNA/well with or without Apolipoprotein E3 (ApoE3). After 24-hour incubation, luminescence was quantified using the Bright-Glo Luciferase Assay System (Promega) according to manufacturer's instructions and background luminescence from cells not treated with LNPs was subtracted. […] (See Example 70 for LNP formulation procedure, e.g., for 10a-27 (5.7A), 10a-26 (5.7A), 10a-27 (4.5D), and 10a-26 (4.5D) LNPs.)

[2] = system: splenic immune cells; assay: Cre circular RNA LNPs in Cre reporter (Ai9) mice: tdTomato+ splenic immune cells; type: in vivo; conditions: 0.5 mg/kg RNA intravenously, 48 hr
Procedure: Circular RNAs encoding Cre recombinase (Cre) are encapsulated into lipid nanoparticles as previously described. Female, 6-8 week old B6.Cg-Gt(ROSA)26Sortm9(CAG-tdTomato)Hze/J (Ai9) mice were dosed with lipid nanoparticles at 0.5 mg/kg RNA intravenously. Fluorescent tdTomato protein was transcribed and translated in Ai9 mice upon Cre recombination, meaning circular RNAs have been delivered to and translated in tdTomato+ cells. After 48 hr, mice were euthanized and the spleens were harvested, processed into a single cell suspension, and stained with various fluorophore-conjugated antibodies for immunophenotyping via flow cytometry.
Ai9 mice (B6.Cg-Gt(ROSA)26Sortm9(CAG-tdTomato)Hze/J, female, 6-8 weeks, n=3 per group) were injected i.v. with 0.5 mg/kg Cre oRNA LNPs or PBS. Ai9 mice transcribe and translate the fluorescent reporter tdTomato upon Cre recombination; meaning cells which are tdTomato+ have successfully been transfected with Cre oRNA.

[3] = In vivo analysis: FLuc oRNA LNPs, whole body and ex vivo IVIS flux in mice; set-up: species or system CD-1 or c57BL/6J mice; conditions: 0.5 mg/kg RNA intravenously
Procedure: Female CD-1 or female c57BL/6J mice ranging from 22-25 g were dosed at 0.5 mg/kg RNA intravenously. Six hours after injection, mice were injected intraperitoneally with 200 μL of D-luciferin at 15 mg/mL concentration. 5 minutes after injection, mice were anesthetized using isoflurane, and placed inside the IVIS Spectrum In Vivo Imaging System (Perkin Elmer) with dorsal side up. Post 10 minutes injection, mice were scanned for luminescence. Mice were euthanized and organs were extracted within 25 minutes of luciferin injection to scan for luminescence in liver, spleen, kidneys, lungs, and heart. Images (FIGS. 33A-B, 34A-B, 35A-B) were analyzed using Living Images (Perkin Elmer) software. Regions of interest were drawn to obtain flux and average radiance and analyzed for biodistribution of protein expression (FIG. 32A-B).

[4] = system: 1C1C7 cells; assay: GLuc luminescence and functional stability by IRES in 1C1C7 cells; conditions: 100 ng circularization reaction per 20,000 cells
[5] = system: HEK293 cells; assay: GLuc luminescence by IRES in HEK293 cells; conditions: 100 ng circularization reaction per 20,000 cells

In the case of `CCCCCCCCC(CCCCCC)C(=O)OCCCCCCN(CCCCCCOC(=O)C(CCCCCC)CCCCCCCC)CCCn1ccnc1C` (stereo not shown) [Lipid 27 from Table 10a, ((3-(2-methyl-1H-imidazol-1-yl)propyl)azanediyl)bis(hexane-6,1-diyl) bis(2-hexyldecanoate)], the Firefly luminescence [1] is reported as “generally produced higher luminescence than those containing Lipid 26 from Table 10a (10a-26)”, the “proportion of splenic immune cells expressing tdTomato (transfection)” value (from here on “proportion”) ([2]; 0.5 mg/kg) is reported as “significantly higher myeloid and T cell transfection compared with Lipid 93-S14; also recorded: effective at delivering circular RNAs to many splenic immune cell subsets in mice” and the “proportion” value ([2]; listed as Lipid 10a-27, 0.5 mg/kg) is reported as “transfect significantly more splenic immune cells than those made with Lipid 10a-46”.

For `CCCCCCCCCOC(=O)CCCCCCCN(CCO)CCCCCCCC(=O)OC(CCCCCCCC)CCCCCCCC` [Lipid 15 from Table 10b], the “proportion” value [2] was “effective at delivering circular RNAs to many splenic immune cell subsets in mice” and the “spleen to liver ratios” value [3] was “maintaining the desired spleen to liver ratios”.

B1: Salivirus A SZ-1 (nucleic acid)
DNA: TCTGTCCTCACCCCATCTTCCCTTCTTTCCTGCACCGTTACGCTTACTCGCATGTGCATTGAGTGGTGCACGTGCTTGAACAAACAGCTACACTCACATGGGGGCGGGTTTTCCCGCCCTGCGGCCTCTCGCGAGGCCCACCCCTCCCCTTCCTCCCATAACTACAGTGCTTTGGTAGGTAAGCATCCTGATCCCCCGCGGAAGCTGCTCACGTGGCAACTGTGGGGACCCAGACAGGTTATCAAAGGCACCCGGTCTTTCCGCCTTCAGGAGTATCCCTGCTAGTGAATTCTAGTAGGGCTCTGCTTGGTGCCAACCTCCCCCAAATGCGCGCTGCGGGAGTGCTCTTCCCCAACTCACCCTAGTATCCTCTCATGTGTGTGCTTGGTCAGCATATCTGAGACGATGTTCCGCTGTCCCAGACCAGTCCAGTAATGGACGGGCCAGTGTGCGTAGTCGTCTTCCGGCTTGTCCGGCGCATGTTTGGTGAACCGGTGGGGTAAGGTTGGTGTGCCCAACGCCCGTACTTTGGTGATACCTCAAGACCACCCAGGAATGCCAGGGAGGTACCCCGCTTCACAGCGGGATCTGACCCTGGGCTAATTGTCTACGGTGGTTCTTCTTGCTTCCACTTCTTTCTACTGTTCATG
In the case of B1, the “luminescence at 24 hours” value [4] is reported as “high luminescence”.

B2: Crohivirus B IRES: "Crohivirus B (CrVB) IRES", one of the selected IRES sequences, SEQ ID NOs: 348-389 (nucleic acid)
DNA: GTATAAGAGACAGGTGTTTGCCTTGTCTTCGGACTGGCATCTTGGGACCAACCCCCCTTTTCCCCAGCCATGGGTTAAATGGCAATAAAGGACGTAACAACTTTGTAACCATTAAGCTTTGTAATTTTGTAACCACTAAGCTTTGTGCACATAATGTAACCATCAAGCTTGTTAGTCCCAGCAGGAGGTTTGCATGCTTGTAGCCGAAATGGGGCTCGACCCCCCATAGTAGGATACTTGATTTTGCATTCCATTGTGGACCTGCAAACTCTACACATAGAGGCTTTGTCTTGCATCTAAACACCTGAGTACAGTGTGTACCTAGACCCTATAGTACGGGAGGACCGTTTGTTTCCTCAATAACCCTACATAATAGGCTAGGTGGGCATGCCCAATTTGCAAGATCCCAGACTGGGGGTCGGTCTGGGCAGGGTTAGATCCCTGTTAGCTACTGCCTGATAGGGTGGTGCTCAACCATGTGTAGTTTAAATTGAGCTGTTCATATACC
modifications: Crohivirus B
With B2 the “luminescence at 24 hours” value [5] was “highest luminescence”.
